Patent US9918968B2, “Rapamycin analogs targeting proteasome function in the treatment of cancer” (THE BOARD OF REGENTS OF THE UNIVERSITY OF TEXAS SYSTEM, priority 2013, dated 2018)

How the values were obtained:
[1] = tested on: T1, 20S proteasome α face; experiment: AFM imaging of open/closed conformers of 20S proteasome α face; set-up: species or system human; conditions: 10 μM compound
T1 construct: purchased Enzo LifeSciences
Description: AFM imaging of the 20S proteasomes were performed as previously described, in tapping (oscillating) mode in liquid (Osmulski et al., 2009 and Gaczynska and Osmulski, 2011). In short, 3 μL of proteasome preparations diluted to nanomolar concentration were deposited on a freshly cleaved muscovite mica surface. After 2 min incubation allowing electrostatic attachment of the protein particles to mica the droplet was overlaid with 30 microL of 50 mM Tris-HCl buffer (pH 7.0) and mounted in the wet chamber of a MultiMode NanoScope Ma (Bruker Corp.). Oxide-sharpened silicon nitride tips on cantilevers with a nominal spring constant 0.32 N/m (Bruker Corp.) were used to image 1 μm^2 fields in the height mode, with a scan rate of 3.05 Hz. The excitation frequency was manually tuned to 9-10 kHz, with a drive voltage of 200-500 mV and a relatively high set point (1.6 V to 1.9 V) to assure tapping with low, non-destructive force. […] As the inventors established previously, such resolution was sufficient to detect distinct conformations of the α face, covered by six scan lines. Multiple fields were scanned for each sample to collect images of hundreds of particles. Selected fields were repeatedly scanned to monitor changes in topography of the same particles for prolonged time. Inhibitors and the SucLLVY-MCA substrate were diluted in 10 μL of the imaging buffer and directly injected into the chamber. Raw images are presented, with a standard plain-fit and flattening (NanoScope software v.5.12) used as the only processing tools. For display purposes the brightness and contrast of the images was adjusted with the Nanoscope software or with Adobe Photoshop (Adobe Systems Inc.), and outlier scan lines were occasionally manually removed (Nanoscope software). Top view (“standing”, rounded) proteasomes were distinguished from the minor population of side-view (“lying”, rectangular) particles as described, by comparison of their length—to width ratios (Osmulski et al., 2009). The dimensions of particles were approximated and a shape of the α face in top-view proteasomes was judged with the help of a section tool in the Nanoscope v.5.12 or SPIP v.6.02 software (Image Metrology).
For this purpose, the inventors used the noninvasive tapping mode atomic force microscopy (AFM) in liquid, the imaging technique suitable for analysis of surface topography of macromolecules in their native state with a nanometer-scale practical resolution. The inventors established before that AFM imaging is a useful tool for studying structural dynamics of the 20S α face (Osmulski et al., 2009, Gaczynska et al., 2003; Gaczynska et al., 2011). They acquired and analyzed images of hundreds of single native, fully active 20S molecules. The majority of particles were in top-view (“standing”) position conveniently allowing for imaging of their α faces. […] Following previous extensive studies, the inventors refer to the two forms as “closed-gate” and “open-gate” proteasomes, respectively (Osmulski et al., 2009). As described before, the inventors used the shape of sections carried out in four directions through the top portion of the surface topography of the α ring to distinguish between the two forms. In short, the particle was classified as closed if all four sections were cone-shaped. In contrast, the particle was classified as open if all sections presented a dip surrounded by a rim (FIG. 5A) (Osmulski, et al., 2009). The same particles imaged in consecutive scans were able to assume either closed or open conformations, however the cone-shaped particles were always more abundant than crater-shaped, and accounted for about three-quarters of the imaged molecules (FIG. 5B). Addition of rapamycin to the imaged particles remarkably changed the partition of forms. […]

[2] = tested on: T2, human 20S proteasome, PGPH peptidase; experiment: PGPH peptidase activity of purified human 20S proteasome (CbzLLE-MCA); format: biochemical
T2 construct: purchased Enzo LifeSciences
Description: Human purified proteasome complexes were purchased from Enzo LifeSciences or Boston Biochemicals (19S complex). BODIPY-casein (Invitrogen/Molecular Probes) was used as a model protein substrate, with increasing fluorescence of BODIPY labeled peptide products of degradation monitored for up to 8 hours at 37° C. The peptidase activity of the enzyme was measured as arbitrary intensity units of the released fluorescent group 7-amino-4-methylcoumarin (AMC) from peptide substrates, as described. The common substrates specific for the three kinds of active sites: succinyl-LeuLeuValTyr-7-amido-4-methylcoumarin (Suc-LLVY-MCA; for the ChT-L activity; Bachem), butoxycarbonyl-LeuArgArg-MCA (BocLRR-MCA; for T-L; Bachem) and carbobenzoxy-LeuLeuGlu-MCA (CbzLLE-MCA; for PGPH; Enzo Life Sciences International, Inc.) were used at 100 μM final concentrations, unless stated otherwise (Gaczynska and Osmulski, 2005). Proteasome substrates, rapamycin, its derivatives, and competing peptides were stocked in DMSO and diluted 100-fold in the reaction mixtures. The Rpt5 and PA200 C-terminal peptides were synthesized in the Departmental Peptide Synthesis Core using the standard SPPS chemistry. To activate the latent 20S proteasome, 0.005% (final concentration) of sodium dodecyl sulfate (SDS) was used. The reactions were carried out in 96 well plates, with 2.3 nM proteasome and other components as indicated dissolved in 50 mM Tris-HCl buffer (pH 8.0) and incubated at 37° C. for up to 1 hour. The fluorescence of products was monitored every 2 minutes with a Fluoroskan Ascent plate reader. Reaction rates were calculated from smoothed linear segment of kinetic curves using OriginPro 8.6 (OriginLabs, Northampton, Mass.). For the determination of an inhibition type, at least six distinct substrate concentrations and two inhibitor concentrations were used. The kinetic parameters of inhibition were analyzed in terms of the Michaelis-Menten formalism using the enzyme kinetic module of SigmaPlot v.12 (Systat Software, Inc, San Jose, Calif.) to perform the respective calculations.
IC50 values (a drug concentration causing 50% inhibition of the indicated enzymatic activity) were calculated for ChT-L and PGPH peptidases. Kd (dissociation constant) and Bmax (maximal activation effect achieved; in % above the control activity) values were calculated for the T-L peptidase. Mean±SD from n=2 or 3 experiments, or data from representative experiments set in duplicates or triplicates, are presented in the table. All three peptidase activities changed by no more than ±20%, without a concentration-dependent trend, upon treatment with up to 10 μM of rapamycin unrelated mTOR inhibitors PI-103 or NVP-BEZ235, in two independent experiments.

How did the closed conformers [1] turn out when `CO[C@@H](C[C@@H]1CC[C@@H](C)[C@](O)(C(=O)C(=O)N2CCCC[C@H]2C(=O)[O-])O1)/C(C)=C/C=C/C=C/[C@@H](C)C[C@@H](C)C(=O)[C@H](OC)[C@H](O)/C(C)=C/[C@@H](C)C(=O)/C=C/[C@H](C)C[C@@H]1CC[C@@H](O)[C@H](OC)C1.[Na+]` [seco-rapamycin] was run?
Its closed conformers is roughly 40%.

What about the open conformers [1] of the same molecule?
The open conformers was “about 60%”.

What about the “inhibition of post-acidic (PGPH) cleavages” value ([2]; 5 μM) of the same molecule?
The value was roughly 50%.

What about the IC50 ([2]; latent human 20S proteasome) of the same molecule?
The IC50 was 6.45 ± 0.78 µM.
